According to patent US7759496B2, “Imidazole derivatives having affinity for alpha 2 receptors activity” (Orion Corporation, priority 2002, dated 2010):
Read-outs that look alike come from different tables or passages of the source.

How the values were obtained:
[1] = Chemical stability in phosphate buffer at 37° C.; type: physicochemical
Method: An appropriate amount of the test compound (initial concentrations were 0.1-0.4 mM) was dissolved in pre-heated phosphate buffer (0.16 M, μ=0.5, pH 7.4 or pH 5.0). The solution was placed in a thermostated water bath at 37° C. and aliquots were taken at suitable intervals and analyzed by HPLC to determine the degradation rate of the compound. The pseudo-first-order half-life (t1/2) was calculated from the linear slopes of semi-logarithmic plots of remaining compound over time.

serum esterases = test: Enzymatic hydrolysis in 80% human serum; type: in vitro ADME; settings: pH 7.4, 37° C., read-out: t1/2 (min) 80% human serum (pH 7.4)
Method: To exert the pharmacological effect in the body, a prodrug should be enzymatically degraded to the parent drug. Therefore, the susceptibility of the compounds to serum esterases was evaluated.
An appropriate amount of the test compound was dissolved in one volume (e.g. 1 ml) of phosphate buffer (0.16 M, μ=0.5, pH 7.4) at 37° C. Four volumes (e.g. 4 ml) of pre-heated human serum were added and the solutions were mixed in a water bath at 37° C. (initial concentrations were 0.2-0.5 mM). At suitable intervals, 300 μl aliquots were withdrawn and deproteinated with 600 μl of acetonitrile. After mixing and centrifugation, 600 μl of the supernatant was evaporated to dryness under a stream of air at 40° C. The residue was re-dissolved in 300 μl of the mobile phase and analyzed by HPLC. The pseudo-first-order half-life (t1/2) was calculated from the linear slopes of semi-logarithmic plots of remaining compound over time. Also the formation of the parent drug was determined.

normotensive rabbits = test: IOP study in rabbits; type: in vivo, rabbit; settings: for Intraocular pressure (IOP) change: mean ± SE, n = 5-6
Method: The IOP lowering effect of the prodrug was also compared to the effect of MPV-2426.
To perform the IOP test, a rabbit was placed in a plastic restraining box located in a quiet room. A single drop (25 μl) of the test solution was instilled unilaterally into its left eye on the upper corneoscleral limbus. During installation, the upper eyelid was pulled slightly away from the globe. IOP was measured using a BioRad (Cambridge, Mass.) Digilab Modular One Pneumatonometer. Before each measurement one or two drops of oxybuprocaine (0.06%) were applied to the cornea before tonometry to eliminate discomfort. The upper and lower eyelids were then gently retracted, and the applanation sensor was brought into contact with the center of the cornea. For each
determination at least two readings were taken from each treated (ipsilateral) and untreated (contralateral) eye, and the mean of these readings was used. IOP of the rabbits was measured at 2, 1, and 0 h before and at 0.5, 1, 2, 3, 4 and 5 h after eyedrop administration. IOP at the time of eyedrop administration (0 h) was used as a baseline value. All studies were set up using a masked and randomized crossover design. At least 72 h washout time was allowed for each rabbit between each dosing. Results

[2] = topical unilateral administration

CC(C)(C)C(=O)Oc1ccc2c(c1)C(Cc1c[nH]cn1)CC2.Cl (stereo not shown) [example 3, 4-[6-(2,2-Dimethylpropanoyloxy)indan-1-ylmethyl]-1H-imidazol-1-ium chloride]
half-life ([1]; phosphate buffer pH 5.0, 37° C., read-out: t1/2 (d) phosphate buffer pH 5.0 (converted)): 310 days
half-life ([1]; phosphate buffer pH 7.4, 37° C., read-out: t1/2 (d) phosphate buffer pH 7.4 (converted)): 31 days
half-life (serum esterases): 30 min
IOP lowering potency compared to an equimolar dose of MPV-2426 (normotensive rabbits; [2]): increased IOP lowering potency
duration of action compared to MPV-2426 (normotensive rabbits; [2]): prolonged duration of action
duration of the IOP lowering effect (normotensive rabbits; topical unilateral administration, treated eye): lasted from 1 h through the duration of the 5 h experiment
Intraocular pressure (IOP) change (normotensive rabbits; treated eye, 0.1 μg, 0 h): 0.0 ± 0.0 mmHg
Intraocular pressure (IOP) change (normotensive rabbits; treated eye, 0.1 μg, 0.5 h): 1.7 ± 0.9 mmHg
Intraocular pressure (IOP) change (normotensive rabbits; treated eye, 0.1 μg, 1 h): 0.2 ± 1.3 mmHg
Intraocular pressure (IOP) change (normotensive rabbits; treated eye, 0.1 μg, 2 h): 0.8 ± 1.2 mmHg
Intraocular pressure (IOP) change (normotensive rabbits; treated eye, 0.1 μg, 3 h): 0.6 ± 0.6 mmHg
Intraocular pressure (IOP) change (normotensive rabbits; treated eye, 0.1 μg, 4 h): 1.8 ± 0.5 mmHg
Intraocular pressure (IOP) change (normotensive rabbits; treated eye, 0.1 μg, 5 h): 2.0 ± 0.9 mmHg
Intraocular pressure (IOP) change (normotensive rabbits; treated eye, 1.0 μg, 0 h): 0.0 ± 0.0 mmHg
Intraocular pressure (IOP) change (normotensive rabbits; treated eye, 1.0 μg, 0.5 h): −1.0 ± 0.3 mmHg
Intraocular pressure (IOP) change (normotensive rabbits; treated eye, 1.0 μg, 1 h): −3.6 ± 0.7 mmHg
Intraocular pressure (IOP) change (normotensive rabbits; treated eye, 1.0 μg, 2 h): −4.6 ± 1.4 mmHg
Intraocular pressure (IOP) change (normotensive rabbits; treated eye, 1.0 μg, 3 h): −4.3 ± 1.1 mmHg
Intraocular pressure (IOP) change (normotensive rabbits; treated eye, 1.0 μg, 4 h): −2.0 ± 1.4 mmHg
Intraocular pressure (IOP) change (normotensive rabbits; treated eye, 1.0 μg, 5 h): −0.9 ± 1.8 mmHg
Intraocular pressure (IOP) change (normotensive rabbits; treated eye, 2.5 μg, 0 h): 0.0 ± 0.0 mmHg
Intraocular pressure (IOP) change (normotensive rabbits; treated eye, 2.5 μg, 0.5 h): 0.6 ± 0.9 mmHg
Intraocular pressure (IOP) change (normotensive rabbits; treated eye, 2.5 μg, 1 h): −2.9 ± 1.3 mmHg
Intraocular pressure (IOP) change (normotensive rabbits; treated eye, 2.5 μg, 2 h): −3.3 ± 1.8 mmHg
Intraocular pressure (IOP) change (normotensive rabbits; treated eye, 2.5 μg, 3 h): −1.6 ± 1.7 mmHg
Intraocular pressure (IOP) change (normotensive rabbits; treated eye, 2.5 μg, 4 h): 1.0 ± 2.2 mmHg
Intraocular pressure (IOP) change (normotensive rabbits; treated eye, 2.5 μg, 5 h): 1.3 ± 1.9 mmHg
Intraocular pressure (IOP) change (normotensive rabbits; treated eye, 3.4 μg (equimolar to 2.5 μg of MPV-2426), 0 h): 0.0 ± 0.0 mmHg
Intraocular pressure (IOP) change (normotensive rabbits; treated eye, 3.4 μg (equimolar to 2.5 μg of MPV-2426), 0.5 h): −0.9 ± 0.9 mmHg
Intraocular pressure (IOP) change (normotensive rabbits; treated eye, 3.4 μg (equimolar to 2.5 μg of MPV-2426), 1 h): −2.9 ± 0.5 mmHg
Intraocular pressure (IOP) change (normotensive rabbits; treated eye, 3.4 μg (equimolar to 2.5 μg of MPV-2426), 2 h): −6.5 ± 1.1 mmHg
Intraocular pressure (IOP) change (normotensive rabbits; treated eye, 3.4 μg (equimolar to 2.5 μg of MPV-2426), 3 h): −5.2 ± 1.7 mmHg
Intraocular pressure (IOP) change (normotensive rabbits; treated eye, 3.4 μg (equimolar to 2.5 μg of MPV-2426), 4 h): −3.2 ± 0.9 mmHg
Intraocular pressure (IOP) change (normotensive rabbits; treated eye, 3.4 μg (equimolar to 2.5 μg of MPV-2426), 5 h): −1.4 ± 0.7 mmHg
IOP changes in the untreated eyes (normotensive rabbits; untreated (contralateral) eyes): Less significant changes
Intraocular pressure (IOP) change (normotensive rabbits; untreated eye, 0.1 μg, 0 h): 0.0 ± 0.0 mmHg
Intraocular pressure (IOP) change (normotensive rabbits; untreated eye, 0.1 μg, 0.5 h): 1.4 ± 0.1 mmHg
Intraocular pressure (IOP) change (normotensive rabbits; untreated eye, 0.1 μg, 1 h): 0.9 ± 0.5 mmHg
Intraocular pressure (IOP) change (normotensive rabbits; untreated eye, 0.1 μg, 2 h): 1.3 ± 0.2 mmHg
Intraocular pressure (IOP) change (normotensive rabbits; untreated eye, 0.1 μg, 3 h): 1.3 ± 0.7 mmHg
Intraocular pressure (IOP) change (normotensive rabbits; untreated eye, 0.1 μg, 4 h): 1.0 ± 0.9 mmHg
Intraocular pressure (IOP) change (normotensive rabbits; untreated eye, 0.1 μg, 5 h): 2.4 ± 1.3 mmHg
Intraocular pressure (IOP) change (normotensive rabbits; untreated eye, 1.0 μg, 0 h): 0.0 ± 0.0 mmHg
Intraocular pressure (IOP) change (normotensive rabbits; untreated eye, 1.0 μg, 0.5 h): 0.0 ± 1.4 mmHg
Intraocular pressure (IOP) change (normotensive rabbits; untreated eye, 1.0 μg, 1 h): −2.1 ± 1.2 mmHg
Intraocular pressure (IOP) change (normotensive rabbits; untreated eye, 1.0 μg, 2 h): −2.0 ± 1.8 mmHg
Intraocular pressure (IOP) change (normotensive rabbits; untreated eye, 1.0 μg, 3 h): −0.9 ± 2.4 mmHg
Intraocular pressure (IOP) change (normotensive rabbits; untreated eye, 1.0 μg, 4 h): −1.4 ± 0.7 mmHg
Intraocular pressure (IOP) change (normotensive rabbits; untreated eye, 1.0 μg, 5 h): −0.8 ± 2.1 mmHg
Intraocular pressure (IOP) change (normotensive rabbits; untreated eye, 2.5 μg, 0 h): 0.0 ± 0.0 mmHg
Intraocular pressure (IOP) change (normotensive rabbits; untreated eye, 2.5 μg, 0.5 h): −0.2 ± 0.9 mmHg
Intraocular pressure (IOP) change (normotensive rabbits; untreated eye, 2.5 μg, 1 h): −0.6 ± 0.7 mmHg
Intraocular pressure (IOP) change (normotensive rabbits; untreated eye, 2.5 μg, 2 h): 0.0 ± 1.5 mmHg
Intraocular pressure (IOP) change (normotensive rabbits; untreated eye, 2.5 μg, 3 h): 0.1 ± 1.0 mmHg
Intraocular pressure (IOP) change (normotensive rabbits; untreated eye, 2.5 μg, 4 h): 1.0 ± 1.8 mmHg
Intraocular pressure (IOP) change (normotensive rabbits; untreated eye, 2.5 μg, 5 h): 0.3 ± 1.6 mmHg
Intraocular pressure (IOP) change (normotensive rabbits; untreated eye, 3.4 μg (equimolar to 2.5 μg of MPV-2426), 0 h): 0.0 ± 0.0 mmHg
Intraocular pressure (IOP) change (normotensive rabbits; untreated eye, 3.4 μg (equimolar to 2.5 μg of MPV-2426), 0.5 h): 0.4 ± 0.7 mmHg
Intraocular pressure (IOP) change (normotensive rabbits; untreated eye, 3.4 μg (equimolar to 2.5 μg of MPV-2426), 1 h): −2.7 ± 0.8 mmHg
Intraocular pressure (IOP) change (normotensive rabbits; untreated eye, 3.4 μg (equimolar to 2.5 μg of MPV-2426), 2 h): −1.3 ± 0.6 mmHg
Intraocular pressure (IOP) change (normotensive rabbits; untreated eye, 3.4 μg (equimolar to 2.5 μg of MPV-2426), 3 h): −2.8 ± 0.8 mmHg
Intraocular pressure (IOP) change (normotensive rabbits; untreated eye, 3.4 μg (equimolar to 2.5 μg of MPV-2426), 4 h): −0.8 ± 0.7 mmHg
Intraocular pressure (IOP) change (normotensive rabbits; untreated eye, 3.4 μg (equimolar to 2.5 μg of MPV-2426), 5 h): −0.8 ± 1.0 mmHg
melting point: 176 to 177 °C
